Reference: PubChem BioAssay AID977621 (Broad Institute, 2014)
Results filed as inconclusive are left out. Activity calls are given as the source filed them.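 The calls were made as follows: active = Wild-type ribosome reporter drop at least double the humanized mutant ribosome reporter drop, growth loss under a set limit; inconclusive = no clear call, values can overlap the other calls; inactive = the rest.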

Assays:
[1] = system: E. coli wild-type GFP strain growth, fluorescence, 24 h; assay: growth inhibition of wild-type GFP E. coli, dose response, H69 mutant RFP, cherry-pick (AID 977621);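 also: wild-type GFP and H69 mutant RFP strains grown together 50/50 in each well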
[2] = system: E. coli H69 humanized mutant ribosome RFP strain growth, fluorescence, 24 h; assay: as above; conditions: test 2
[3] = E. coli mixed culture, 24 h, measured here: total growth OD600, test 2

SMILES | AC50 [1] | AC50 [1, 3] [µM] | AC50 [2] [µM] | AC50 ([1]; measured here: total growth OD600, test 2) [µM]
COC(=O)C[C@H]1C[C@@H]2c3cc(NC(=O)Nc4ccc(C(F)(F)F)cc4)ccc3O[C@@H]2[C@H](CO)O1 | > 100 µM (inactive) | > 100 | > 100 | –
Cc1cc(NC(=O)CS(=O)(=O)c2cn(Cc3cccc(Br)c3)c3ccccc23)no1 | – | 46 | > 100 | –
Cc1noc(C)c1COc1cccc(C(=O)N2CCc3ccccc32)c1 | – | > 100 | > 100 | –
COc1ccccc1CNC(=O)CN1C(=O)NC(c2ccccc2)(c2ccccc2)C1=O | – | > 100 | 50.3 | –
COc1cc(OC)nc(Oc2ccccc2C(=O)Oc2ccc(C)cc2)n1 | – | 50.4 | 51.1 | –
O=S(=O)(NC1CC1)c1ccc(S(=O)(=O)N2CCc3ccccc32)cc1 | – | > 100 | 8.03 | –
CN(CCOc1ccc(CC2SC(=O)NC2=O)cc1)c1ccccn1 (stereo not given) | > 100 µM (inactive) | 40.7 | > 100 | –
CCOC(=O)CN1C(=O)C(CC)Oc2ccc(Cl)cc21 (stereo not given) | – | > 100 | 5.94 | –
COc1ccc(-c2csc3ncn(-c4ccccc4OC)c(=O)c23)cc1OC | > 100 µM (inactive) | – | > 100 | –
CCN(c1ccccc1)S(=O)(=O)c1cccc(C(=O)NCC(c2cccs2)N(C)C)c1 (stereo not given) | > 100 µM (inactive) | – | > 100 | –
O=C(NCc1ccccc1Cl)[C@H]1CCCN1C(=O)[C@H]1CCCN1C(=O)c1cccc2ccccc12 | > 100 µM (inactive) | 48 | > 100 | –
C=C(C)Cn1c(=O)c2c(nc3n2CC(C)CN3Cc2ccccc2)n(C)c1=O (stereo not given) | – | > 100 | > 100 | –
O=C(NC1=NCCS1)c1sc2ccccc2c1Cl | > 100 µM (inactive) | 43.6 | > 100 | –
CN(c1ccccc1)c1ccc([N+](=O)[O-])c2nonc12 | > 100 µM (inactive) | – | 49.4 | –
Cc1sc(NC(=O)CN2CCOCC2)nc1-c1ccc2c(c1)CCN2S(=O)(=O)c1ccccc1 | – | > 100 | 2.87 | –
O=S1(=O)N[C@H](Cc2ccccc2)COc2cccc(N3CCC[C@H]3CO)c21 | – | > 100 | > 100 | –

SMILES | AC50 [1] | AC50 [1, 3] [µM] | AC50 [2] [µM] | AC50 ([1]; measured here: total growth OD600, test 2) [µM]
C[C@]12CCC3C(CC[C@H]4C[C@@H](O)CC[C@]34C)[C@H]1CC[C@H]2O (stereo not given in full) | – | – | > 100 | 43.3
NC(=O)c1sc2nnc(-c3ccccc3)c(-c3ccccc3)c2c1N | > 100 µM (inactive) | – | > 100 | –
CCN(CC)CCn1c(SCC(=O)Nc2cccc(OC)c2)nc2c(sc3ccccc32)c1=O | > 100 µM (inactive) | – | > 100 | –
COc1ccc(-c2ccccc2)cc1NC(=O)c1ccncc1 | – | > 100 | 4.41 | –
Cc1nnn(C23CC4CC(CC(CC(=O)Nc5ccc(C)c(C)c5)(C4)C2)C3)n1 | > 100 µM (inactive) | – | > 100 | –
CC(Nc1ncnc2ccccc12)c1ccccc1 (stereo not given) | > 100 µM (inactive) | – | > 100 | –
COc1ccccc1NS(=O)(=O)c1cc(C(=O)Nc2ccc(S(=O)(=O)Nc3onc(C)c3C)cc2)ccc1C | > 100 µM (inactive) | – | 4.45 | –
CN1c2ccccc2-c2nc3ccccc3n2C1c1ccncc1 (stereo not given) | > 100 µM (inactive) | > 100 | > 100 | –
O=C(Cn1c(C(=O)NCc2ccco2)cc2sccc21)c1ccccc1 | – | 50 | 47.2 | –
Cn1c(=O)c2nc(-c3ccccc3)c(-c3ccccc3)nc2n(C)c1=O | > 100 µM (inactive) | 47.9 | 35.6 | –
CC1CCCN(c2nc(N(C)c3ccccc3)nc(N)c2[N+](=O)[O-])C1 (stereo not given) | > 100 µM (inactive) | – | 50.7 | –
CCC1(C(=O)OC)CCc2c(cc(OC)c3ccccc23)C1=O (stereo not given) | – | 42.2 | > 100 | –
Cc1ccn2cc(-c3cccc(NC(=O)c4cccs4)c3)nc2c1 | – | > 100 | > 100 | –
COc1ccc(NC(=O)C2CC3C=CC2C3)c([N+](=O)[O-])c1 (stereo not given) | > 100 µM (inactive) | – | > 100 | –
O=C(O)C1CCCCC1C(=O)Nc1ccc(OCc2ccccc2)cc1 (stereo not given) | > 100 µM (inactive) | – | > 100 | –
C(=C(c1ccccc1)c1ccccc1)c1ccccn1 | – | > 100 | > 100 | –
